Patent publication US10905665B2, “Chemical modulators of signaling pathways and therapeutic use” (Duke University, priority 2015, dated 2021)
Where two headings read alike, the source gives them in different places.

Experiments:
Type in all cases: cell-based
Frizzled1-GFP = biological target: T1, Frizzled1-GFP (Homo sapiens, UniProt Q9UP38); test: Frizzled internalization assay (Fzd1-GFP); design: key: Punctate similar to control=0; trace amount of punctate greater than control=1; moderate=3; strong=5; conditions: 6 hours, 0-5 point scale
T1 construct: expressed in transfected cells
T1 sequence (Q9UP38 70-647): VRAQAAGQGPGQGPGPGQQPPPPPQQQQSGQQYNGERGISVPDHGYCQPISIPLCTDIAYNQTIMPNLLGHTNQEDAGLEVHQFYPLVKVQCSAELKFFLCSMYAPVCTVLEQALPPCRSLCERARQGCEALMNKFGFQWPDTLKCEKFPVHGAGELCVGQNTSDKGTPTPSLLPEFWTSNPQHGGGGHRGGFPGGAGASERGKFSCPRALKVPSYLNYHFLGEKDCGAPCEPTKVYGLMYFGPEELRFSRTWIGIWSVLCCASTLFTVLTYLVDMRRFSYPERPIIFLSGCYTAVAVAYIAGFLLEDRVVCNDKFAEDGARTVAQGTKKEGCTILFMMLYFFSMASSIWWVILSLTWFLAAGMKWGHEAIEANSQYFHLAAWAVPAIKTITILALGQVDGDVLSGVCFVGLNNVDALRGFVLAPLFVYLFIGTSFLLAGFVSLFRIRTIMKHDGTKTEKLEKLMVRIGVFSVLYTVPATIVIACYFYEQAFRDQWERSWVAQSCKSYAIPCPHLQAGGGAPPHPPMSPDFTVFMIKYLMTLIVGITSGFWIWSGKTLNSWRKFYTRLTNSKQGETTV
Experimental: The Fzd1-GFP assay was performed following a procedure similar to previously published work (Chen, M. Y.; Wang, J. B.; Lu, J. Y.; Bond, M. C.; Ren, X. R.; Lyerly, H. K.; Barak, L. S.; Chen, W. Biochemistry 2009, 48, 10267). Cells stably expressing Frizzled1-GFP plated in confocal dishes were treated, after 24 hours, with 12.5 μM of test compound or DMSO for 6 hours at 37° C. followed by fixation with 4% paraformaldehyde. The cells were then examined by microscopy using a LSM 510-Meta confocal microscope (Carl Zeiss, Thornwood, N.Y., USA) equipped with 40× and 100× apo chromat objectives. YFP was excited using a 488-nm argon laser line. Images were processed using the LSM software Image Browser (CarlZeiss, Thornwood, N.Y., USA). Plates were read twice in blinded fashion using a 0-5 point scale. ^aPunctate similar to control=0, trace amount of punctate greater than control=1, moderate=3, strong=5.

[1] = system: Wnt/β-catenin transcription; test: Wnt-3A-stimulated TOPFlash reporter assay in HEK293 cells; conditions: for IC50: Wnt-3A conditioned medium, 8 hour treatment, read-out: Inhibition Wnt/β-catenin transcription TopFlash IC50
Experimental: Stably transfected cells were seeded in 100 μl of cell growth medium/well in 96-well plates at 100% confluency. Fifty microliters of Wnt-3A conditioned medium containing the chemical compounds to be tested or DMSO was added to each well. After an 8 hour treatment, the cells were washed once with PBS and lysed with 55 μl of Passive Lysis Buffer supplied in the Dual-Luciferase Reporter Assay kit (Promega, Madison, Wis.). Twenty-five microliters of cell lysate was used for measuring luciferase activity in a 96-well plate reader (FluoStar Optima, BMG Labtech, Chicago, Ill.). Data were fit using GraphPad Prism (mean±SEM, n>=2).

[2] = system: colon cancer cell line HCT116; test: Cell proliferation assay (MTS); conditions: HCT116, up to 10 μM
Experimental: The colon cancer cell line HCT116 was used in the cell proliferation assay. The cells were plated in 100 μl of growing medium/well in 96-well plates at 5,000 cells per well and treated with compounds from 0.04 to 10 μM for 72 hours, after which point the cells were analyzed by colorimetric MTS assay (Promega, Madison, Wis., USA). Data were fit using GraphPad Prism (mean±SEM, n 3).

Row | Fzd1-GFP internalization @12.5 μM (Frizzled1-GFP) | IC50 ([1]; Homo sapiens, HEK293, 8 h) [nM] | Structure (SMILES) | further results
1 | 5 | 550 ± 110 | O=C(Nc1ccc(C(F)(F)F)cc1F)c1cc(Cl)ccc1O [Compound 10, 5-chloro-N-(2-fluoro-4-(trifluoromethyl)phenyl)-2-hydroxybenzamide] | 
2 | 0 | 15000 | O=C(c1ccccc1)c1ccc(NC(=O)c2cc(Cl)ccc2O)cc1 [Compound 6, N-(4-benzoylphenyl)-5-chloro-2-hydroxybenzamide] | 
3 | 0 | 15100 ± 1400 | O=C(NCc1ccc(C(F)(F)F)cc1)c1cc(Cl)ccc1O [Compound 25, 5-chloro-2-hydroxy-N-(4-(trifluoromethyl)benzyl)benzamide] | 
4 | 1 | 2570 ± 270 | O=S(=O)(Nc1ccc(C(F)(F)F)cc1Cl)c1cc(Cl)ccc1O [Compound 58, 5-Chloro-N-(2-chloro-4-(trifluoromethyl)phenyl)-2-hydroxybenzenesulfonamide] | Anti-proliferation activity, MTS assay, in words [2]: no effect
5 | 5 | 1210 ± 170 | O=C(Nc1ccc(F)c(Cl)c1)c1cc(Cl)ccc1O [Compound 23, 5-chloro-N-(3-chloro-4-fluorophenyl)-2-hydroxybenzamide] | 
6 | 0 | > 12000 | O=C(NC(=O)c1cc(Cl)ccc1O)c1ccc(C(F)(F)F)cc1 [Compound 57, 5-Chloro-2-hydroxy-N-(4-(trifluoromethyl)benzoyl)benzamide] | 
7 | 2 | 4020 ± 790 | O=C(Nc1ccc(F)cc1F)c1cc(Cl)ccc1O [Compound 20, 5-chloro-N-(2,4-difluorophenyl)-2-hydroxybenzamide] | 
8 | 5 | 700 ± 130 | O=C(Nc1cc(Cl)cc(Cl)c1)c1cc(Cl)ccc1O [Compound 16, 5-chloro-N-(3,5-dichlorophenyl)-2-hydroxybenzamide] | 
9 | 5 | 890 ± 320 | O=C(Nc1cccc(C(F)(F)F)c1)c1cc(Cl)ccc1O [Compound 9, 5-chloro-2-hydroxy-N-(3-(trifluoromethyl)phenyl)benzamide] | 
10 | 0 | 1300 ± 180 | O=C(Nc1ccc(Cl)cc1)c1cc(Cl)ccc1O [Compound 11, 5-chloro-N-(4-chlorophenyl)-2-hydroxybenzamide] | 
11 | 0 | 3840 ± 290 | O=C(Nc1ccc(F)cc1)c1cc(Cl)ccc1O [Compound 19, 5-chloro-N-(4-fluorophenyl)-2-hydroxybenzamide] | 
12 | 5 | 1650 ± 120 | O=C(Nc1cccc(Cl)c1)c1cc(Cl)ccc1O [Compound 12, 5-chloro-N-(3-chlorophenyl)-2-hydroxybenzamide] | 
13 | 1 | 3050 ± 870 | O=C(Nc1ccccc1Cl)c1cc(Cl)ccc1O [Compound 13, 5-chloro-N-(2-chlorophenyl)-2-hydroxybenzamide] | 
14 | 5 | 750 ± 130 | O=C(Nc1cc(Cl)ccc1Cl)c1cc(Cl)ccc1O [Compound 15, 5-chloro-N-(2,5-dichlorophenyl)-2-hydroxybenzamide] | 
15 |  | 500 | CCCCCCC(=O)Oc1ccc(Cl)cc1C(=O)Nc1ccc([N+](=O)[O-])cc1Cl [Compound 63, 4-chloro-2-((2-chloro-4-nitrophenyl)carbamoyl)phenyl heptanoate] | 
16 | 3 | 1410 ± 210 | O=C(Nc1ccc(F)cc1Cl)c1cc(Cl)ccc1O [Compound 22, 5-chloro-N-(2-chloro-4-fluorophenyl)-2-hydroxybenzamide] | 

More lines, now with the values behind:

Row | Structure (SMILES) | Fzd1-GFP internalization @12.5 μM (Frizzled1-GFP) | IC50 ([1]; Homo sapiens, HEK293, 8 h) [nM] | further results
17 | O=C(Nc1ccccc1)c1cc(Cl)ccc1O [Compound 1, 5-chloro-2-hydroxy-N-phenylbenzamide] | 0 | 11800 | 
18 | CC(=O)c1ccc(NC(=O)c2cc(Cl)ccc2O)cc1 [Compound 3, N-(4-acetylphenyl)-5-chloro-2-hydroxybenzamide] | 0 | 6420 ± 510 | 
19 | O=C(Nc1ccc(Cl)c(Cl)c1)c1cc(Cl)ccc1O [Compound 17, 5-chloro-N-(3,4-dichlorophenyl)-2-hydroxybenzamide] | 5 |  | IC50 ([1]; Homo sapiens, HEK293): 730 ± 130 nM
20 | CC(=O)Oc1ccc(Cl)cc1C(=O)Nc1ccc(C(F)(F)F)cc1Cl [Compound 59, 4-Chloro-2-((2-chloro-4-(trifluoromethyl)phenyl)carbamoyl)phenyl acetate] | 5 |  | IC50 ([1]; Homo sapiens, HEK293): 320 ± 30 nM
21 | O=C(Nc1ccc([N+](=O)[O-])cc1)c1cc(Cl)ccc1O [Compound 2, 5-chloro-2-hydroxy-N-(4-nitrophenyl)benzamide] | 5 |  | IC50 [1]: 990 ± 320 nM
22 | NC(=O)c1ccc(NC(=O)c2cc(Cl)ccc2O)cc1 [Compound 4, N-(4-carbamoylphenyl)-5-chloro-2-hydroxybenzamide] | 0 | > 12000 | 
23 | CS(=O)(=O)c1ccc(NC(=O)c2cc(Cl)ccc2O)c(Cl)c1 [Compound 5, 5-chloro-N-(2-chloro-4-(methylsulfonyl)phenyl)-2-hydroxybenzamide] | 0 | 7660 | 
24 | O=CCOc1cc([N+](=O)[O-])ccc1NC(=O)c1cc(Cl)ccc1O [Compound 31, 5-chloro-2-hydroxy-N-(4-nitro-2-(2-oxoethoxy)phenyl)benzamide] |  |  | inhibition at 2 µM ([1]; Homo sapiens, HEK293, 8 h): 55%
25 | Cc1cc([N+](=O)[O-])ccc1NC(=O)c1cc(Cl)ccc1O [Compound 26, 5-chloro-2-hydroxy-N-(2-methyl-4-nitrophenyl)benzamide] |  |  | Inhibition Wnt/β-catenin transcription TopFlash, % inhibition @ 3 μM ([1]; 3 μM): 80% inhibition
26 | O=C(Nc1ccc(C(F)(F)F)cc1Cl)c1c(O)ccc2ccccc12 [Compound 43, N-(2-chloro-4-(trifluoromethyl)phenyl)-2-hydroxy-1-naphthamide] |  |  | Inhibition Wnt/β-catenin transcription TopFlash, % inhibition @ 5 μM ([1]; 5 μM): 50% inhibition
27 | O=C(Nc1ccc([N+](=O)[O-])c(F)c1)c1cc(Cl)ccc1O [Compound 32, 5-chloro-N-(3-fluoro-4-nitrophenyl)-2-hydroxybenzamide] |  |  | inhibition at 10 µM ([1]; Homo sapiens, HEK293, 8 h): 90%
28 | C#CCOc1cc([N+](=O)[O-])ccc1NC(=O)c1cc(Cl)ccc1O [Compound 33, 5-chloro-2-hydroxy-N-(4-nitro-2-(prop-2-yn-1-yloxy)phenyl)benzamide] |  |  | inhibition at 2 µM ([1]; Homo sapiens, HEK293, 8 h): 45%
29 | O=c1oc2ccc(Cl)cc2c(=O)n1-c1ccc(C(F)(F)F)cc1F [Compound 76, 6-chloro-3-(2-fluoro-4-(trifluoromethyl)phenyl)-2H-benzo[e][1,3]oxazine-2,4(3H)-dione] |  |  | Inhibition Wnt/β-catenin transcription TopFlash, % inhibition @ 1 μM ([1]; 1 μM): 90% @ 1 μM
30 | O=C(CCCCCN1C(=O)C=CC1=O)Oc1ccc(Cl)cc1C(=O)Nc1ccc([N+](=O)[O-])cc1Cl [Compound 67, 4-chloro-2-((2-chloro-4-nitrophenyl)carbamoyl)phenyl 6-(2,5-dioxo-2,5-dihydro-1H-pyrrol-1-yl)hexanoate] |  |  | Inhibition Wnt/β-catenin transcription TopFlash, % inhibition @ 0.5 μM ([1]; 0.5 μM): 75% inhibition
31 | O=C(Nc1ccc([N+](=O)[O-])c(Cl)c1)c1cc(Cl)ccc1O [Compound 36, 5-chloro-N-(3-chloro-4-nitrophenyl)-2-hydroxybenzamide] |  |  | inhibition at 2 µM ([1]; Homo sapiens, HEK293, 8 h): 90%
